Data from PMC6588435 (Cell chemical biology, 2019).
Converted amounts (≈) assume the structure as drawn.

Tests used:
Mtb = conditions: rising up to; ref Zhao et al., 2014; cited from earlier work
INCA-R Mtb strains = assay: microbe, parasite or virus in culture; type: cell-based, Mycobacterium tuberculosis
[1] = test system: PAS-resistant Mtb mutant folC (I43T); type: cell-based, Mycobacterium tuberculosis
[2] = test system: PAS-resistant Mtb mutant thyX (−16 C->T); type: cell-based, Mycobacterium tuberculosis
[3] = test system: PAS-resistant Mtb mutant folC (E153G); type: cell-based, Mycobacterium tuberculosis

Nc1ccc(C(=O)O)c(O)c1 [PAS, para-aminosalicylic acid]
MIC values of PAS-resistant mutants (Mtb): up to 8 μg/mL | elevation of MIC in INCA-R strains (loss of potency) (INCA-R Mtb strains): 32 fold | MIC (INCA-R Mtb strains; Mycobacterium tuberculosis, read-out: MIC of INCA-R strains): 16 µg/mL | MIC, folC (I43T) [1]: 32 µg/mL (≈ 209 µM) | MIC, thyX (−16 C->T) [2]: 16 µg/mL (≈ 104 µM) | MIC, folC (E153G) [3]: 32 µg/mL (≈ 209 µM)
